Measurements published in US8802849B2, “Tricyclic benzo[4,5]thieno-[2,3-d]pyrimidine-4-yl-amin derivatives, their salts, process for producing the compounds and their pharmaceutical use” (Vichem Chemie Kutató Kft., priority 2008, dated 2014).

Assays:
[1] = target: PDGFR-beta (Homo sapiens, UniProt P09619); experiment: PDGFR-beta kinase assay; assay type: biochemical; conditions: 10 μM compound; read-out: PDGFR-beta percent of inhibition
Experimental: (§1) General description of the kinase assays: the kinase activity was assayed in 96-well microtiter plates at a final compound concentration of 10 μM in a total volume of 50 μl. Compounds were dissolved in 100% DMSO to prepare a 10 mM stock solution and than diluted with buffer to reach a 10 μM (or the required) final concentration. The kinase concentration was used to yield 10% ATP turn over. The ATP concentration was used at the KmATP and 12.5 μCi/ml adenosine 5′[γ-33P]triphosphate. The substrate concentration was used at 5 fold excess over the Km for the substrate. The reaction was incubated for 1 hour at room temperature and stopped by addition of 10 μl 50 mM EDTA. The assay was transferred to a 96 well MAPH filter plate (Millipore). The radioactivity was counted on a Microbeta microplate counter.

[2] = target: RSK1 (Homo sapiens, UniProt Q15418); experiment: RSK1 kinase assay; assay type: biochemical; conditions: 10 μM compound; read-out: RSK1 percent of inhibition
Experimental: as §1

[3] = target: P56Lck (Homo sapiens, UniProt P06239); experiment: P56Lck kinase assay; assay type: biochemical; conditions: 10 μM compound; read-out: P56Lck percent of inhibition
Experimental: as §1

[4] = target: c-Src (Homo sapiens, UniProt P12931); experiment: c-Src kinase assay; assay type: biochemical; conditions: 10 μM compound; read-out: c-Src percent of inhibition
Experimental: as §1

[5] = target: CK1-alpha (Homo sapiens, UniProt P48729); experiment: CK1-alpha kinase assay; assay type: biochemical; conditions: 10 μM compound; read-out: CK1-alpha percent of inhibition
Experimental: as §1

[6] = target: EGFR (Homo sapiens, UniProt P00533); experiment: EGFR kinase assay (33P-ATP filter plate); assay type: biochemical; conditions: for inhibition at 10 µM: 10 μM compound, read-out: EGFR percent of inhibition; for IC50: EGFR-PTK assay
Experimental: as §1

[7] = target: MAPK-ERK1 (Homo sapiens, UniProt P27361); experiment: MAPK-ERK1 kinase assay; assay type: biochemical; conditions: 10 μM compound; read-out: MAPK-ERK1 percent of inhibition
Experimental: as §1

[8] = target: SRPK1 (Homo sapiens, UniProt Q96SB4); experiment: SRPK1 kinase assay; assay type: biochemical; conditions: 10 μM compound; read-out: SRPK1 percent of inhibition
Experimental: as §1

[9] = target: ROCK2 (Homo sapiens, UniProt O75116); experiment: ROCK2 kinase assay; assay type: biochemical; conditions: 10 μM compound; read-out: ROCK2 percent of inhibition
Experimental: as §1

[10] = target: CDK2/CycA (Homo sapiens, UniProt P24941); experiment: CDK2/CycA kinase assay; assay type: biochemical; conditions: 10 μM compound; read-out: CDK2/CycA percent of inhibition
Experimental: as §1

[11] = target: Kit (Homo sapiens, UniProt P10721); experiment: Kit kinase assay; assay type: biochemical; conditions: 10 μM compound; read-out: Kit percent of inhibition
Experimental: as §1

[12] = target: Abl (Homo sapiens, UniProt P00519); experiment: Abl kinase assay; assay type: biochemical; conditions: 10 μM compound; read-out: Abl percent of inhibition
Experimental: as §1

[13] = target: c-Raf (Homo sapiens, UniProt P04049); experiment: c-Raf kinase assay; assay type: biochemical; conditions: 10 μM compound; read-out: c-Raf percent of inhibition
Experimental: as §1

[14] = target: cMet (Homo sapiens, UniProt P08581); experiment: cMet kinase assay; assay type: biochemical; conditions: 10 μM compound; read-out: cMet percent of inhibition
Experimental: as §1

[15] = target: GSK-3beta (Homo sapiens, UniProt P49841); experiment: GSK-3beta kinase assay; assay type: biochemical; conditions: 10 μM compound; read-out: GSK-3beta percent of inhibition
Experimental: as §1

[16] = target: T1, IKK-beta (Homo sapiens, UniProt O14920); experiment: IKK-beta kinase assay; assay type: biochemical; conditions: 10 μM compound; read-out: IKK-beta percent of inhibition
T1 sequence (O14920 1-756): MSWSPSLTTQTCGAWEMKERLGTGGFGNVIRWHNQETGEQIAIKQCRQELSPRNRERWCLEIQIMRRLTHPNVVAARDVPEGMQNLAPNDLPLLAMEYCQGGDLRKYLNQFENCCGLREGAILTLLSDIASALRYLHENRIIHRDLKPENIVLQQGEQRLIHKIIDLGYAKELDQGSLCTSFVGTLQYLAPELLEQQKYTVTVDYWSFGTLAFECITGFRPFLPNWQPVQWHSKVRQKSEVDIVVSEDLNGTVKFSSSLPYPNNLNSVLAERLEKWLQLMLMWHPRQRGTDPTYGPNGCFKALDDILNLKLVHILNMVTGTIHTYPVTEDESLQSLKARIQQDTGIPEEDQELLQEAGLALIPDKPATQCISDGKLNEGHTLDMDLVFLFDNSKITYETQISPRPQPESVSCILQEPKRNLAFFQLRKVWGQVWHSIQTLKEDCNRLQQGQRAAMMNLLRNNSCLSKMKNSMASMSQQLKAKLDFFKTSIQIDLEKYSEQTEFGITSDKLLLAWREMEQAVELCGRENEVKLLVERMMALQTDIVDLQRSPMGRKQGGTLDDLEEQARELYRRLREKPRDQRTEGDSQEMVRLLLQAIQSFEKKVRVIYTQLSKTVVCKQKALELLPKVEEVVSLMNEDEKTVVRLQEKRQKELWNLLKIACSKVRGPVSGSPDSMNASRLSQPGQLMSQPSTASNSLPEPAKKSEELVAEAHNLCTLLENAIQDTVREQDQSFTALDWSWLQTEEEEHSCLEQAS
Experimental: as §1

[17] = target: InsR (Homo sapiens, UniProt P06213); experiment: InsR kinase assay; assay type: biochemical; conditions: 10 μM compound; read-out: InsR percent of inhibition
Experimental: as §1

[18] = target: Jnk1a1 (Homo sapiens, UniProt P45983); experiment: Jnk1a1 kinase assay; assay type: biochemical; conditions: 10 μM compound; read-out: Jnk1a1 percent of inhibition
Experimental: as §1

[19] = target: AKT1/PKBa (Homo sapiens, UniProt P31749); experiment: AKT1/PKBa kinase assay; assay type: biochemical; conditions: 10 μM compound; read-out: AKT1/PKBa percent of inhibition
Experimental: as §1

[20] = target: P70S6K (Homo sapiens, UniProt P23443); experiment: P70S6K kinase assay; assay type: biochemical; conditions: 10 μM compound; read-out: P70S6K percent of inhibition
Experimental: as §1

MAPK-ERK1, sequence (P27361 whole entry): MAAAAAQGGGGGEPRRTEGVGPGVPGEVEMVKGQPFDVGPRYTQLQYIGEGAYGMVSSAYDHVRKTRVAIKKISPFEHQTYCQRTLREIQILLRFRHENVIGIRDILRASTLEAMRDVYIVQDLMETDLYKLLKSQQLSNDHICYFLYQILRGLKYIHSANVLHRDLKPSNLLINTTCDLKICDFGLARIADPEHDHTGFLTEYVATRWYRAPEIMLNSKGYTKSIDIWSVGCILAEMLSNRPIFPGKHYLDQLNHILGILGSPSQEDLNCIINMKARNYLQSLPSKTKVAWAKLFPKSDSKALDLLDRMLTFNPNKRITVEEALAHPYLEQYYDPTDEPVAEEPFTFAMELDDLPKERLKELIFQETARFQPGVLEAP
EGFR, sequence (P00533 25-1210): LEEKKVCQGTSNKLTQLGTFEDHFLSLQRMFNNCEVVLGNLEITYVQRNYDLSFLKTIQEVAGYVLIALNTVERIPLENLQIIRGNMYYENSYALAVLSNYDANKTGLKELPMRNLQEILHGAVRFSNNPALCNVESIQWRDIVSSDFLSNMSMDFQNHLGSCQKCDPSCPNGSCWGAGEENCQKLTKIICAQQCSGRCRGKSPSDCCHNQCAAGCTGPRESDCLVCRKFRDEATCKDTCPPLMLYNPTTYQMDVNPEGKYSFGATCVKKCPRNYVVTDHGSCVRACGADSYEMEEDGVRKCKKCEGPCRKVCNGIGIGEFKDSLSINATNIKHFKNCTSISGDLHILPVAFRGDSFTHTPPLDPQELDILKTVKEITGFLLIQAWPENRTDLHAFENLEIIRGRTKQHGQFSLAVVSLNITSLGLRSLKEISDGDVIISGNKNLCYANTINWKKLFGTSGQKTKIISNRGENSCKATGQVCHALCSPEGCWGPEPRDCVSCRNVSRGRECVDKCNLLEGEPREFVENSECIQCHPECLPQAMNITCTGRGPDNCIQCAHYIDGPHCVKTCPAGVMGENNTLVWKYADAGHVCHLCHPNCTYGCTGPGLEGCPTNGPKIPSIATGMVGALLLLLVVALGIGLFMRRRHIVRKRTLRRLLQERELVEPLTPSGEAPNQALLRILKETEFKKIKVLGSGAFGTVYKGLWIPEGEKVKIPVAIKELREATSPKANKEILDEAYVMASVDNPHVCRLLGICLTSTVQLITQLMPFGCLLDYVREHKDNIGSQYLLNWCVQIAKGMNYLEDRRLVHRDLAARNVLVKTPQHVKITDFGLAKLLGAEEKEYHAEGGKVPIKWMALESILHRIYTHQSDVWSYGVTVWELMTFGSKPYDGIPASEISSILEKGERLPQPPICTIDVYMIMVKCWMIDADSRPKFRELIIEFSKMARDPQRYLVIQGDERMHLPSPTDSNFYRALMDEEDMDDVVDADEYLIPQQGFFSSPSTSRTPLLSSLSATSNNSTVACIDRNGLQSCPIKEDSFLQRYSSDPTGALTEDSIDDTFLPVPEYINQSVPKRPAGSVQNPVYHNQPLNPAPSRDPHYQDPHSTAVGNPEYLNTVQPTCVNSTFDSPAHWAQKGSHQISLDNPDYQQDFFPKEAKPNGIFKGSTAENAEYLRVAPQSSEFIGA
c-Src, sequence (P12931 whole entry, species assumed): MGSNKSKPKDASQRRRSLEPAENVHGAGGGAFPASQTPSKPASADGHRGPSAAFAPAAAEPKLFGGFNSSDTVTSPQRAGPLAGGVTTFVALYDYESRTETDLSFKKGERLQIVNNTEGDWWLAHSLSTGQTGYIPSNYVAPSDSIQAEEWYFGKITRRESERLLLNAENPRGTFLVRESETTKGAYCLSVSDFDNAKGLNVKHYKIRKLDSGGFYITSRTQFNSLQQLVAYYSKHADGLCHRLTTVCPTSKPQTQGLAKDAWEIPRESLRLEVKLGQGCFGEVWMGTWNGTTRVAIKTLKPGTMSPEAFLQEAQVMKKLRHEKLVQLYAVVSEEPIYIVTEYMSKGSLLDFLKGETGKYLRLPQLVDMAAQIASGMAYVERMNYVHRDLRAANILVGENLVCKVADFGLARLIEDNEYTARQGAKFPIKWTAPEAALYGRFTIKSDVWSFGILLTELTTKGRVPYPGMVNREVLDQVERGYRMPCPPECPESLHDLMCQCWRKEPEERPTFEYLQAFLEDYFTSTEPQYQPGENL
P70S6K, sequence (P23443 whole entry): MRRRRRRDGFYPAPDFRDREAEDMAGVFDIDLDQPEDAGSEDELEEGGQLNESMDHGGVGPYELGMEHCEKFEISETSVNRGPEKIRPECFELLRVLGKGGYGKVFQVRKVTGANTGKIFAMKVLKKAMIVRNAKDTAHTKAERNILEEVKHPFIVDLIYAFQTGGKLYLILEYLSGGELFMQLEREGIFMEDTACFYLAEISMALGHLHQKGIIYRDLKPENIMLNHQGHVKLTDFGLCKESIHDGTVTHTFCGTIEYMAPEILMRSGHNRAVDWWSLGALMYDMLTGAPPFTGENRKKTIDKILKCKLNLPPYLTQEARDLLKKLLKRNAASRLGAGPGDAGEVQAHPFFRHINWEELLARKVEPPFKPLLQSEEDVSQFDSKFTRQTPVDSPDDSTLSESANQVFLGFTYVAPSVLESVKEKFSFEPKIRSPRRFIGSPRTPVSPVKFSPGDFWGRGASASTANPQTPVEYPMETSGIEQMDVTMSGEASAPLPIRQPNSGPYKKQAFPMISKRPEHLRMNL
cMet, sequence (P08581 25-1390): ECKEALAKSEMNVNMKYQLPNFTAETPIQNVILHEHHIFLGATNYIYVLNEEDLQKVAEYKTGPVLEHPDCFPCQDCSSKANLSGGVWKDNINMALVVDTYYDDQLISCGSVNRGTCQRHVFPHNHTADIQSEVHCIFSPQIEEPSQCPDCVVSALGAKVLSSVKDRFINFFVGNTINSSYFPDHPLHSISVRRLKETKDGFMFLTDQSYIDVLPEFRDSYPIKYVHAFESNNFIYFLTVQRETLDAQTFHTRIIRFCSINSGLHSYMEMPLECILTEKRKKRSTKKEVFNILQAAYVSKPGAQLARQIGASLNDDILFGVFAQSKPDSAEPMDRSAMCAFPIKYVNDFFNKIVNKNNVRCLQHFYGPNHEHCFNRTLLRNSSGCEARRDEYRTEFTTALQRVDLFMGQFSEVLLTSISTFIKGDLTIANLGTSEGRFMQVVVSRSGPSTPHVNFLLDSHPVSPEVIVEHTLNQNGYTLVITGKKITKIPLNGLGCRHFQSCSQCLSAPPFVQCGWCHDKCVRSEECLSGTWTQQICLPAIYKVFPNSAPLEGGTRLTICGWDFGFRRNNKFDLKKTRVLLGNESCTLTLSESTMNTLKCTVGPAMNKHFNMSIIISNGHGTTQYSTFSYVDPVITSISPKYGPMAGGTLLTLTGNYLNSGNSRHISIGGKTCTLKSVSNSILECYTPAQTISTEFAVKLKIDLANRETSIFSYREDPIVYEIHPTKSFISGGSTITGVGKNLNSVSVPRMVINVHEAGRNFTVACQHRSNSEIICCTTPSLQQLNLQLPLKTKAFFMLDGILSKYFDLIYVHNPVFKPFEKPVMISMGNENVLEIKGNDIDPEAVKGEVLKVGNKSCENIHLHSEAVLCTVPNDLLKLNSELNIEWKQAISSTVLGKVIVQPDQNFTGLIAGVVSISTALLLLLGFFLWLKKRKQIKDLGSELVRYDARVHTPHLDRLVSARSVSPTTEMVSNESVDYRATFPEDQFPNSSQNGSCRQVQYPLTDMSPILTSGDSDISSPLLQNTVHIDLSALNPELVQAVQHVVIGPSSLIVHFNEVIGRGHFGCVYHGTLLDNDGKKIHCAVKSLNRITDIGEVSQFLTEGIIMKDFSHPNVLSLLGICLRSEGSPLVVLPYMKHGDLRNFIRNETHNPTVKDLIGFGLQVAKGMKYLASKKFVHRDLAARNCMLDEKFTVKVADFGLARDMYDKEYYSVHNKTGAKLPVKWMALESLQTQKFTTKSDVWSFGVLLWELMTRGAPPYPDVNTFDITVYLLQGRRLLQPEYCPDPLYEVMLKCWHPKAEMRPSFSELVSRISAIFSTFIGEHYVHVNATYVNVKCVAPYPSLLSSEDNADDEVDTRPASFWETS
PDGFR-beta, sequence (P09619 33-1106, species assumed): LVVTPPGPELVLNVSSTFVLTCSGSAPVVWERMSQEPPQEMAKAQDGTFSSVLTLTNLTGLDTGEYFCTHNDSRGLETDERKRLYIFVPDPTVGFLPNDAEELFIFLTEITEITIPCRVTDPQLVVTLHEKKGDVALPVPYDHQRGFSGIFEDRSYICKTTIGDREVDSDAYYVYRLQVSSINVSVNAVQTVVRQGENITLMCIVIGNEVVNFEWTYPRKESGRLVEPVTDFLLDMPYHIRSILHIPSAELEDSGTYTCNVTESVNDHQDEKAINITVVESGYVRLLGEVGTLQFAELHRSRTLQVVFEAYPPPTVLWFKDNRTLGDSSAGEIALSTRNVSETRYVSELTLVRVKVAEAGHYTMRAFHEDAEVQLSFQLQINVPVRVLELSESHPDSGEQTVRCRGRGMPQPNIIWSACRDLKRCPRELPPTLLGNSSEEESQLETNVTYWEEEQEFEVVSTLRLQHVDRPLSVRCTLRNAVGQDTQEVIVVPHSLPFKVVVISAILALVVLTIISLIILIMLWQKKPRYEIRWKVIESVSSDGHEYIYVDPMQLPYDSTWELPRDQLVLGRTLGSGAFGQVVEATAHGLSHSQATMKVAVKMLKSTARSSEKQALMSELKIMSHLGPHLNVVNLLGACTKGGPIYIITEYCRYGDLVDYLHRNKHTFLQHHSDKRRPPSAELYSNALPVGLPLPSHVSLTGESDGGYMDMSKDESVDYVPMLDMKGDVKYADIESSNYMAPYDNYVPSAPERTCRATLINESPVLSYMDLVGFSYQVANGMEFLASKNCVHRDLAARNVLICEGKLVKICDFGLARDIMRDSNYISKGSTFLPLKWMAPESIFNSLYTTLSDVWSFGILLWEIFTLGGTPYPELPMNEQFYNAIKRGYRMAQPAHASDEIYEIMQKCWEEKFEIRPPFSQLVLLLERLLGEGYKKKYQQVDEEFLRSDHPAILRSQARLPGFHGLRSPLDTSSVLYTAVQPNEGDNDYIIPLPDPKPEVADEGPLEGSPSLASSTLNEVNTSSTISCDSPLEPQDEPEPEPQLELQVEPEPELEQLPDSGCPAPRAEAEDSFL

| melting point | inhibition at 10 µM [1] [%] | inhibition at 10 µM [2] [%] | inhibition at 10 µM [3] [%] | inhibition at 10 µM [4] [%] | inhibition at 10 µM [5] [%] | inhibition at 10 µM [6] [%] | inhibition at 10 µM [7] [%] | inhibition at 10 µM [8] [%] | inhibition at 10 µM [9] [%] | inhibition at 10 µM [10] [%] | inhibition at 10 µM [11] [%] | inhibition at 10 µM [12] [%] | inhibition at 10 µM [13] [%] | inhibition at 10 µM [14] [%] | inhibition at 10 µM [15] [%] | inhibition at 10 µM [16] [%] | inhibition at 10 µM [17] [%] | inhibition at 10 µM [18] [%] | inhibition at 10 µM [19] [%] | SMILES | other results |
| --- | --- | --- | --- | --- | --- | --- | --- | --- | --- | --- | --- | --- | --- | --- | --- | --- | --- | --- | --- | --- | --- |
| 194.6 °C | -5 | 19 | -5 | 8 | 7 | 99 | -5 | 7 | -2 | 9 | -5 | -7 | 0 | -4 | -6 | 10 | -7 | -3 | -25 | N#Cc1cccc(Nc2ncnc3sc4c(c23)CCCC4)c1 [Compound 5, 3-(5,6,7,8-Tetrahydro-benzo[4,5]thieno[2,3-d]pyrimidin-4-ylamino)-benzonitrile] | inhibition at 10 µM [20]: 1% |
| 188 °C | 0 | -7 | 9 | 1 | 0 | 86 | 2 | 9 | 2 | -2 | 11 | 7 | 12 | -5 | 3 | 8 | -5 | -8 | -1 | Clc1cccc(Nc2nc(C3CC3)nc3sc4ccccc4c23)c1 [Compound 17, (2-Cyclopropyl-benzo[4,5]thieno[2,3-d]pyrimidin-4-yl)-(3-chloro-phenyl)-amine] | inhibition at 10 µM [20]: 7% |
| 164.3 °C (dec.) | 0 | 6 | 9 | 24 | 5 | 98 | 8 | 6 | 7 | 16 | 2 | -7 | 14 | 2 | -2 | 12 | -7 | 6 | 1 | Nc1cccc(Nc2ncnc3sc4c(c23)CCCC4)c1 [Compound 4, N-(5,6,7,8-Tetrahydro-benzo[4,5]thieno[2,3-d]pyrimidin-4-yl)-benzene-1,3-diamine] | IC50 [6]: 16.8 nM; inhibition at 10 µM [20]: 2% |
| 204.8 °C | -4 | -14 | -7 | 8 | -1 | 4 | 4 | -5 | 6 | -5 | -1 | 0 | 2 | 3 | -3 | 4 | -6 | -3 | 1 | FC(F)(F)c1cccc(Nc2nc(C3CC3)nc3sc4c(c23)CCCC4)c1 [Compound 11, (2-Cyclopropyl-5,6,7,8-tetrahydro-benzo[4,5]thieno[2,3-d]pyrimidin-4-yl)-(3-trifluoromethyl-phenyl)-amine] | inhibition at 10 µM [20]: 20% |
| 193 °C | -3 | 2 | 7 | 2 | 0 | 60 | 6 | 10 | 9 | -2 | -1 | 3 | -4 | 0 | 1 | -4 | 2 | -4 | -7 | Fc1cccc(Nc2nc(C3CC3)nc3sc4ccccc4c23)c1 [Compound 16, (2-Cyclopropyl-benzo[4,5]thieno[2,3-d]pyrimidin-4-yl)-(3-fluoro-phenyl)-amine] | inhibition at 10 µM [20]: 8% |
| 171 °C | -3 | 1 | -9 | 3 | 0 | 98 | 1 | 8 | 4 | -10 | -4 | -4 | -2 | 1 | 3 | 2 | 7 | -2 | 3 | Fc1cccc(Nc2ncnc3sc4ccccc4c23)c1 [Compound 21, Benzo[4,5]thieno[2,3-d]pyrimidin-4-yl-(3-fluoro-phenyl)-amine] | IC50 [6]: 26.9 nM; inhibition at 10 µM [20]: 7% |
| 186.7 °C | -7 | 8 | -5 | 5 | 5 | 9 | 6 | 12 | 9 | -14 | 1 | 12 | -13 | -6 | -6 | 12 | 23 | -3 | -9 | COc1cccc(Nc2nc(C3CC3)nc3sc4c(c23)CCCC4)c1 [Compound 15, (2-Cyclopropyl-5,6,7,8-tetrahydro-benzo[4,5]thieno[2,3-d]pyrimidin-4-yl)-(3-methoxy-phenyl)-amine] | inhibition at 10 µM [20]: 4% |
